Laboratory results published in patent US7732178B2, “Laccase enzymes and their uses” (AB Enzymes Oy, priority 2004, dated 2010).

Experiments:
TaLcc1 = format: biochemical, Thielavia arenaria; details: inhibitor 0.5 mM
Description: (§1) The inhibition effect of different compounds on the activity of the laccases was determined as described in Example 2. except with Talcc4, with which the inhibition was analyzed using spectroscopic activity assay.

TaLcc2 = format: biochemical, Thielavia arenaria; details: inhibitor 0.5 mM
Description: as §1

[1] = system: wild type Chaetomium (CtL) laccase; format: biochemical, Chaetomium thermophilum; details: pH 5
[2] = system: Chaetomium thermophilum ALKO4265 laccase, purified wild type (CtL; CtLcc1); format: biochemical; details: pH 5
CtLcc1 = format: biochemical, Chaetomium thermophilum; details: inhibitor 0.5 mM
Description: as §1

[3] = target: T1, Thielavia arenaria ALKO4197 laccase TaLcc2, recombinant, SEQ ID NO: 41 (Canariomyces notabilis, UniProt A0AAN6TC87); format: biochemical
T1 construct: plasmid pALK1347 (DSM 15486)
Description: as §1

[4] = target: T2, Chaetomium thermophilum ALKO4265 laccase CtLcc1, recombinant, SEQ ID NO: 47 (Thermochaetoides thermophila, UniProt G0S3A5); format: biochemical
T2 construct: plasmid pALK1304 (DSM 15075)
Description: as §1

[5] = system: Thielavia arenaria ALKO4197 laccase TaLcc4, recombinant, SEQ ID NO: 45; format: biochemical
Description: as §1

TaLcc4 = format: biochemical, Thielavia arenaria; details: inhibitor 0.5 mM; spectrofotometric ABTS assay
[6] = target: Thielavia arenaria ALKO4197 laccase, purified wild type (TaLcc; TaLcc1) (Canariomyces arenarius, UniProt F6N9E7); assay: biochemical; details: pH 5
[7] = target: T3, Thielavia arenaria ALKO4197 laccase TaLcc1, recombinant, SEQ ID NO: 39 (Canariomyces arenarius, UniProt F6N9E7); assay: biochemical
T3 construct: plasmid pALK1342 (DSM 15484)
Description: as §1

[8] = Specific activity towards ABTS; format: biochemical; details: 25 mM succinate buffer pH 4.5, 25° C.
Description: The activity assay was carried out in accordance with the method developed by Niku-Paavola et al. (1988). The sample was diluted with 0.025 M succinate buffer, pH 4.5. […] The activity is expressed as nano katals.
(§2) Specific activities of the purified T. arenaria and C. thermophilum laccases were determined towards different laccase substrates.

[9] = Specific activity towards di-methoxy-phenol (DMP); format: biochemical; details: 25 mM MES buffer, pH 5.5
Description: as §2

[10] = Stain removal, tea soiling; parameters: key to Tea L* / Tea a* / Tea b*: CIE L*a*b* color coordinates from reflectance; details: 60 min, 40° C., pH 6; enzyme 20 nkat/g + mediator 2 mg/g (Mediator only: 0 nkat/g)
Description: (§3) Laccases CtLcc1, TaLcc2, TaLcc4 and Denilite II Base (Example 7) were tested for their ability to remove stains. The following artificially soiled test cloths were used: grass soiling (Art.164, EMPA Testmaterialen, Germany), tea soiling (Art. 167, EMPA Testmaterialen, Germany). The fabric was cut in 5.8×5.8 cm swatches. Laccase treatments were performed in LP-2 Launder Ometer as follows. About 5 g of soiled fabrics were loaded into 1.2 liter containers containing 150 ml Mc Ilvaine's citrate phosphate buffer pH 6 and the containers were temperated. Enzyme with or without the mediator (methyl syringate, DeniLite II Assist, Novozymes) was added as laccase activity units (Example 7). Enzyme was dosed 200 nkat/g and the mediator 10 mg/g on the weight of fabric, except at 40° C. dosages of 20 nkat/g and 2 mg/g were also used. The Launder Ometer was run at 40, 50 or 60° C. and pH 6 for 60 min. After that the swatches were carefully rinsed under running water and in shake flasks containing warm water and dried in the air.
(§4) The stain removal effect was evaluated by measuring the colour as reflectance values using L*a*b* color space coordinates (Example 7). The colour of the swatches was measured before and after the laccase treatment.

[11] = Stain removal, grass soiling; parameters: key to Grass L* / Grass a* / Grass b*: CIE L*a*b* color coordinates from reflectance; details: 60 min, 40° C., pH 6; enzyme 20 nkat/g + mediator 2 mg/g (Mediator only: 0 nkat/g)
Description: as §3, §4

[12] = Redox potential, combined Pt-AgCl/KCl microelectrode; format: physicochemical; details: combined Pt-AgCl/KCl microelectrode at pH 5.0
Description: (§5) The purified recombinant Thielavia and Chaetomium laccases were characterized in terms of pH optimum, thermal stability, and pI as described in Example 2. The molecular weight was determined by MALDI-TOF mass spectrometry on a Ultraflex™ time-of-flight instrument (BrukerDaltonics, Germany) as previously described (Palonen et al., 2003). The redox-potentials of the T1 coppers of for CtLcc, and TaLcc2 laccases were determined by photometric copper titration in 0.1 M KH2PO4 (pH 6.0) as described by Xu et al. (1996) using the redox titrant couple K3Fe(CN)6/K4Fe(CN)6. The redox potential of TaLcc1 was determined with a combined Pt—AgCl/KCl microelectrode at pH 5.0 according to Sigoillot et al (2004). The characterization results are collected to Table 14.

[13] = Isoelectric focusing (pI); format: physicochemical; details: pH range 3-9
Description: Molecular weight of the T. arenaria and C. thermophilum laccases were determined on SDS-PAGE according to Laemmli (1970) The gels used in the SDS-PAGE analysis were ready-made 12% Tris HCl gels (BioRad). Protein bands were visualized by staining with Coomassie Brilliant Blue (R 350; Pharmacia) and compared with molecular weight markers (Prestained Protein Marker Broad Range #7708S; New England BioLabs, Beverly, Mass.). The molecular weight of the both laccases was approximately 80 kDa. The isoelectric point of the laccases was determined with isoelectric focusing within the pH range of 3-9 (Pharmalyte IEF, Pharmacia) on a LKB 2117 Multiphor II Electrophoresis System (LKB Pharmacia, Bromma, Sweden) according to the manufacturer's instructions.
as §5

[14] = Specific activity towards syringaldazine; format: biochemical; details: 25 mM MES buffer, pH 5.5
Description: as §2

[15] = Specific activity towards guaiacol; format: biochemical; details: 25 mM MES buffer, pH 5.5
Description: as §2

T2 sequence (G0S3A5 entry or part of it): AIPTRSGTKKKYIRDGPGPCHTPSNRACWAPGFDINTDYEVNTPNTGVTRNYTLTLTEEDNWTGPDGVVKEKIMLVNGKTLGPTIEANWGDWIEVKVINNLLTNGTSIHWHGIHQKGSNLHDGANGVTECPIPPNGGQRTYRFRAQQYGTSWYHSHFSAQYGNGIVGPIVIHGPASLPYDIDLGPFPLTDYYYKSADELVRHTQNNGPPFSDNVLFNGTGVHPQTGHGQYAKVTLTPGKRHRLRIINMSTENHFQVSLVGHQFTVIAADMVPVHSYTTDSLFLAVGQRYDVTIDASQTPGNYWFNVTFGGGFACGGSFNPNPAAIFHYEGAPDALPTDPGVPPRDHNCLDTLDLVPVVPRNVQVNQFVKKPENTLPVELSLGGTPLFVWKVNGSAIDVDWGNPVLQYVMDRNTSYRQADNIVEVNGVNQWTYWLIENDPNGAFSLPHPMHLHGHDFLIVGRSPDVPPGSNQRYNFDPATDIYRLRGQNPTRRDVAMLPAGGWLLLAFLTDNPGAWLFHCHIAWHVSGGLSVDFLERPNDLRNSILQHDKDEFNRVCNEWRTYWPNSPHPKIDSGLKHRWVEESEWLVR
T1 sequence (A0AAN6TC87 entry or part of it): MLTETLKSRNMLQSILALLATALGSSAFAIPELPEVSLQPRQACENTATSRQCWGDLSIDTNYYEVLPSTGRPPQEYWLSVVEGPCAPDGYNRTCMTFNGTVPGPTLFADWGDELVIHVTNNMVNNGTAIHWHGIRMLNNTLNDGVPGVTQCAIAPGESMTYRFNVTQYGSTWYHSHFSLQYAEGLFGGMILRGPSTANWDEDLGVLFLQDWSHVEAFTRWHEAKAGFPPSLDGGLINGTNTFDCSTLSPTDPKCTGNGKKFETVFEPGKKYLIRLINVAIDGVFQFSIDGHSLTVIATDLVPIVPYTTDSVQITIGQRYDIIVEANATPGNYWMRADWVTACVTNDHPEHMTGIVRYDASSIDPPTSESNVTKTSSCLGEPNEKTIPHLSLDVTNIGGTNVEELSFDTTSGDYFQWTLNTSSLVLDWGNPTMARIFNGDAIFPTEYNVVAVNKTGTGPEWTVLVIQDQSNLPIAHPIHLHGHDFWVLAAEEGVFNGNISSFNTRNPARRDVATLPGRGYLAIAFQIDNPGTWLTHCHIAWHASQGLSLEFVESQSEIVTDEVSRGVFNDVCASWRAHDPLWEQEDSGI

[N-]=[N+]=[N-].[Na+] [NaN3]
Inhibition (%) TaLcc1 (TaLcc1): 95%
Inhibition (%) TaLcc2 (TaLcc2): 95%
Inhibition (%) CtL [1]: 100%
Inhibition (%) [2]: 100%
Inhibition (%) CtLcc1 (CtLcc1): 100%
Inhibition (%) [3]: 95%
Inhibition (%) [4]: 100%
Inhibition (%) [5]: 95%
Inhibition (%) TaLcc4 (TaLcc4): 95%

O=C(O)CN(CCN(CC(=O)O)CC(=O)O)CC(=O)O [EDTA]
Inhibition (%) [2]: 0%
inhibition at 10000 µM [6]: 0%
inhibition at 10000 µM [7]: 5%
Inhibition (%) [5]: 2%

B1: TaLcc1: Thielavia arenaria ALKO 4197 laccase, SEQ ID NO: 39, produced in Trichoderma reesei (protein)
chain: MKSWAAAVALMVGILSPHAAAAPPANPVQRDMLQVLEARQSGPTCNTPSNRACWTNGFDINTDYEVSTPNTGRTVAYQLTLTEKENWIGPDGVLKNVVMLVNDKIIGPTIRANWGDNIEVTVINNLKTNGTSMHWHGLRQLGNVFNDGANGVTECPIPPKGGRKTYKFRATQYGTSWYHSHFSAQYGNGVVGTIQIDGPASLPYDIDLGVFPLMDYYYRSADELVHFTQSNGAPPSDNVLFNGTARHPETGAGQWYNVTLTPGKRHRLRIINTSTDNHFQVSLVGHNMTVIATDMVPVNAFTVSSLFLAVGQRYDVTIDANSPVGNYWFNVTFGDGLCGSSNNKFPAAIFRYQGAPATLPTDQGLPVPNHMCLDNLNLTPVVTRSAPVNNFVKRPSNTLGVTLDIGGTPLFVWKVNGSAINVDWGKPILDYVMSGNTSYPVSDNIVQVDAVDQWTYWLIENDPTNPIVSLPHPMHLHGHDFLVLGRSPDELPSAGVRHIFDPAKDLPRLKGNNPVRRDVTMLPAGGWLLLAFKTDNPGAWLFHCHIAWHVSGGLSVDFLERPNDLRTQLNSNAKRADRDDFNRVCREWNAYWPTNPFPKIDSGLRHRFVEESEWMVR
modifications: Thielavia arenaria ALKO4197; (1)..(617) Deduced amino acid sequence of Thielavia arenaria ALKO4197 TaLcc1
Specific activity on ABTS [8]: 910 nkat/mg
Specific activity on DMP [9]: 285 nkat/mg
Tea L* [10]: 77.17
Tea a* [10]: 4.65
Tea b* [10]: 24.40
Grass L* [11]: 80.16
Grass a* [11]: −0.73
Grass b* [11]: 16.20
E^0 [12]: 560 mV
pI [13]: 5.5-6.9
Specific activity on syringaldazin [14]: 340 nkat/mg
Specific activity on guaiacol [15]: 61 nkat/mg
